This is an account of results in patent US5622983A, “N-substituted cycloalkyl and polycycloalkyl α-substituted Trp-Phe- and phenethylamine derivatives” (Warner-Lambert Company, priority 1995, dated 1997).

The nature of assay [1]: Light/dark exploration test (anxiolytic activity). It is filed as in vivo, mouse. The protocol: In FIG. 2 the number of mice was 5 and the pretreatment time was 40 minutes. The compound was given p.o. in 0.1, 1, and 10 mg/kg doses.
The apparatus was an open-topped box, 45 cm long, 27 cm wide, and 27 cm high, divided into a small (2/5) area and a large (3/5) area by a partition that extended 20 cm above the walls. There was a 7.5×7.5 cm opening in the partition at floor level. The small compartment was painted black and the large compartment white. The floor of each compartment was marked into 9 cm squares. The white compartment was illuminated by a 100-watt tungsten bulb 17 cm above the box and the black compartment by a similarly placed 60-watt red bulb. The laboratory was illuminated with red light.
All tests were performed between 13 hundred hours, 0 minutes and 18 hundred hours, 0 minutes. Each mouse was tested by placing it in the center of the white area and allowing it to explore the novel environment for five minutes. Its behavior was recorded on videotape and the behavioral analysis was performed subsequently from the recording. Five parameters were measured: the latency to entry into the dark compartment, the time spent in each area, the number of transitions between compartments, the number of lines crossed in each compartment, and the number of rears in each compartment.
Drugs were dissolved in water or saline and administered either subcutaneously, intraperitoneally, or by mouth (PO) via a stomach needle.

The next assay has as its target T1, Central CCK Receptors (Mus musculus, UniProt P56481).
T1 sequence (P56481 1-453): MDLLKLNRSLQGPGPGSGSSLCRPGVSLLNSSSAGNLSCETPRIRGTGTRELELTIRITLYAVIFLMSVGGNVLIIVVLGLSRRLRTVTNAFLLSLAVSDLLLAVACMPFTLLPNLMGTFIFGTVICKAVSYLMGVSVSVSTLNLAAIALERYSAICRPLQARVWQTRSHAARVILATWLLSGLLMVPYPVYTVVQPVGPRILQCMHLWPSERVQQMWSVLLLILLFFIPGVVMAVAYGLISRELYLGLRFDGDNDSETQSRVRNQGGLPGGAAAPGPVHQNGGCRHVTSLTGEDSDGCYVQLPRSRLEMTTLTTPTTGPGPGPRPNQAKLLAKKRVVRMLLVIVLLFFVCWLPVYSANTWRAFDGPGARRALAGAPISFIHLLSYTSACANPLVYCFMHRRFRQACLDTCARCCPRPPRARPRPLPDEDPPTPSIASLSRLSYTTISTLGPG
The assay can be described thus: Binding to central CCK receptors (tritiated-pentagastrin displacement, cerebral cortical membranes). The settings on record: read-out: Binding to Central CCK Receptors Ki; displacement of 2 nM tritiated-pentagastrin, mouse cerebral cortical membranes.

Assay [2] concerns pentagastrin stimulated gastric acid secretion. Put plainly: Pentagastrin stimulated gastric acid secretion (Ghosh and Schild perfused stomach). The following applies: 1 nmole/kg pentagastrin. The format is in vivo, rat. The protocol:
They were anesthetized with urethane (1.5 g/kg IP) and the trachea cannulated to aid spontaneous respiration. The stomach was perfused continuously using a modification of the original method of Ghosh & Schild in "Continuous recording of acid secretion in the rat", Br. J. Pharmac. […] The fluid was propelled by a roller pump (Gilson, Minipuls 2), through heating coils to bring its temperature to 37°±1° C. The perfusion fluid was collected by the fundic collecting funnel and passed to a pH electrode connected to a Jenway pH meter (PHM6). An output was taken from the pH meter to a Rikadenki chart recorder for the on-line recording of the pH of the gastric perfusate.
Pentagastrin was stored as a frozen aliquot and diluted to the required concentrations with sterile 0.9% w/v NaCl. Novel compounds were dissolved in sterile 0.9% w/v NaCl on the day of the experiment. Drugs were administered IV through a cannulated jugular vein as a bolus in a dose volume of 1 mL/kg washed in with 0.15 mL 0.9% w/v NaCl. Basal pH was allowed to stabilize before administration of compounds was begun.

The nature of assay [3]: Palatable Diet Feeding assay. The following applies: dose producing 50% of the maximum effect possible (zero food intake). The format is in vivo, rat. The protocol:
In the Palatable Diet Feeding assay, adult male Hooded Lister rats weighing between 200-400 g were housed individually and trained to eat a palatable diet. This diet consisted of Nestles sweetened condensed milk, powdered rat food and rat water which when blended together set to a firm consistency. […] The intake of palatable diet was measured by weighing the food container before and after the 30-minute access period (limits of accuracy 0.1 g). Care was taken to collect and correct for any spillage of the diet. Rats had free access to pellet food and water except during the 30-minute test period.
After the training period, dose-response curves were constructed for CCK8 and several representative compounds of the present invention (n=8-10 rats per dose level).

Assay [4] in a line: Antagonism of intra-accumbens amphetamine hyperactivity (antipsychotic activity). The format is in vivo, rat. The settings on record: 20 mg/kg or 30 mg/kg intraperitoneal; amphetamine 20 μg. Here is the method: Male Sprague Dawley (CD) Bradford strain rats were used. The rats were housed in groups of five at a temperature of 21°±2° C. on a 12 hour light-dark cycle of lights-on between 07 hours 00 minutes and […]. Rats were fed CRM diet (Labsure) and allowed water ad libitum.
Rats were anesthetized with chloral hydrate (400 mg/kg SC) and placed in a Kopf stereotaxic frame. Chronically indwelling guide cannulae (constructedof stainless steel tubing 0.65 mm diameter held bilaterally in Parspex holders) were implanted using standard stereotaxic techniques to terminate 3.5 mm above the center of the nucleus accumbens (Ant. 9.4, Vert. 0.0, Lat. 1.6) or 5.0 mm above the central nucleus of the amygdala (Ant. 5.8, Vert. -1.8, Lat. ±4.5) (atlas of De Groot, 1959). The guides were kept patent during a 14-day recovery period using stainless steel stylers, 0.3 mm diameter, which extended 0.5 mmbeyond the guide tips.
Rats were manually restrained and the stylers removed. Intracerebral injection cannulae, 0.3 mm diameter, were inserted and drugs delivered in a volume of 0.5 μl over 5 seconds (a further 55 seconds was allowed for deposition) from Hamilton syringes attached via polythene tubing to the injection units. […]
The abilities of the compounds (20) and (20A) to inhibit the hyperactivity caused by the injection of amphetamine into the nucleus accumbens of the rat was measured. […]

Assay [5] in a line: Withdrawal from long-term drug or alcohol treatment, mouse light/dark box test. It is filed as in vivo. The settings on record: 24-hour withdrawal. Here is the method: The effect of the compounds of the instant invention is illustrated, for example, in the mouse "light/dark box" test in FIGS. 5-12.
In FIG. 5, five animals were given nicotine, 0.1 mg/kg i.p.b.d. for 14 days. After a 24-hour withdrawal period, compound (20) was given at 1.0 mg/kg i.p.b.d.
FIG. 6 illustrates the effect of long-term treatment and withdrawal from nicotine using compound (20A). Five mice were given nicotine at 0.1 mg/kg i.p.b.d. for 14 days. After a withdrawal period of 24 hours, compound (20A) was given at 10 mg/kg i.p.b.d.
FIG. 7 illustrates the effect of long-term treatment and withdrawal from diazepam with intervention with compound (20). Five mice were given diazepam, at 10 mg/kg i.p.b.d. for seven days. Withdrawal was for a 24-hour period; compound 20 was given at 1.0 mg/kg i.p.b.d.
FIG. 8 illustrates the effect of compound (20A) on the long-term treatment and withdrawal from diazepam. Five mice were given diazepam at 10 mg/kg i.p.b.d. for seven days. After a withdrawal period of 24 hours, compound (20A) was given at 10 mg/kg i.p.b.d.
FIG. 9 illustrates the effect compound (20A) on the long-term treatment and withdrawal from alcohol. Five mice were given alcohol in drinking water 8% w/v for 14 days. After a withdrawal period of 24 hours, compound (20) was given at 1.0 mg/kg i.p.b.d.
Five mice were given alcohol in drinking water, 8% w/v for 14 days. After a withdrawal period of 24 hours, compound (20A) was given at 10 mg/kg i.p.b.d.
FIG. 11 illustrates the effectiveness in the long-term treatment and withdrawal from cocaine. Five mice were given cocaine as 1.0 mg/kg i.p.b.d. for 14 days.
Five mice were given cocaine at 1.0 mg/kg i.p.b.d. for 14 days after a withdrawal period of 24 hours, compound (20a) was given at 1.0 mg/kg i.p.b.d.

A short description of assay [6]: Aspirin-induced gastric damage. The settings on record: 15 mg/kg PO. The format is in vivo, rat. Here is the method:
Aspirin-induced gastric damage was assessed in groups of 10 rats each.
All animals were fasted for 24 hours before and throughout the experiment. Drug or vehicle was given 10 minutes before an oral dose of 1 mL of a 45-mg/mL suspension of aspirin in 0.5% carboxymethylcellulose (CMC).
The animals were sacrificed five hours after aspirin administration and the stomachs removed and opened for examination.

Broadly, the Ki is the dissociation constant of the complex between target and ligand, obtained from inhibition or displacement.

Experimental for Central CCK Receptors: The biological activity of compounds of the present invention was evaluated employing an initial screening test which rapidly and accurately measured the binding of the tested compound to known CCK receptor sites.
The resulting suspension was centrifuged, the supernate was discarded, and the pellet was washed by resuspension in Tris-HCl buffer followed by recentrifugation.
In saturation studies, cerebral cortical membranes were incubated at 23° C. for 120 minutes in a final volume of 500 μliter of Hepes incubation buffer (pH 7.2) together with 0.2-20 nM tritiated-pentagastrin (Amersham International, England).
In each case, the nonspecific binding was defined as that persisting in the presence of the unlabeled octapeptide CCK26-33 (10^-6 M).
Following incubation, radioactivity bound to membranes was separated from that free in solution by rapid filtration through Whatman GF/B filters and washed three times with 4 mL of ice cold Tris-HCl buffer.
The specific binding to CCK receptor sites was defined as the total bound tritiated-pentagastrin minus the amount of tritiated-pentagastrin bound in the presence of 10^-6 octapeptide, CCK26-33.
The inhibition constant (Ki) of the test compound was then calculated according to the Cheng-Prusoff equation: [formula] where [L] is the concentration of radiolabel and Ka is the equilibrium dissociation constant.

As to `C[C@](Cc1c[nH]c2ccccc12)(NC(=O)OC1C2CC3CC(C2)CC1C3)C(=O)NC[C@H](NC(=O)/C=C/C(=O)O)c1ccccc1` (relative stereo) [Example 22, [R-[R*,R*-(E)]]-4-[[2-[[3-(1H-indol-3-yl)-2-methyl-1-oxo-2-[[(tricyclo[3.3.1.1^3,7]dec-2-yloxy)carbonyl]amino]propyl]amino]-1-pbenylethyl]amino]-4-oxo-2-butenoic acid], in assay [1] (SC), the “time spent in the light area of the test box” value is “significantly (p <0.01) increased the time spent in the light area”. For the same compound, the “anxiolytic activity by the subcutaneous route” value in assay [1] (subcutaneous) is given as “active”.

`CN1C(=O)CN=C(c2ccccc2)c2cc(Cl)ccc21` [Diazepam, reference compound]: the “effect on crossings compared with compound (20)” value in assay [1] (0.25 mg/kg IP, same experiment) is reported as “effect identical to compound (20)”.

With `CC(Cc1c[nH]c2ccccc12)(NC(=O)OC1C2CC3CC(C2)CC1C3)C(=O)NC(COC(=O)CCC(=O)O)Cc1ccccc1` (stereo not drawn) [Example 16, [R-(R*,S*)]-2-[[3-(1H-indol-3-yl)-2-methyl-1-oxo-2-[[(tricyclo[3.3.1.1^3,7 dec-2-yloxy)carbonyl]amino]propyl]amino]-3-phenylpropyl butanedioate], the Ki at Central CCK Receptors came out at 0.03 µM. In addition, the “reversibility of the antagonism” value in assay [2] is “reversible with full recovery of the response to pentagastrin”. Also, the “effect on stimulation of gastric acid secretion produced by pentagastrin” value in assay [2] (compound IV, anesthetized rat) is “attenuated”. Further, the “gastric acid secreted in response to pentagastrin after compound” value in assay [2] (cumulative dose of 1.1 μmole/kg, initial pentagastrin response 254 μmoles/1 H^+) came to 128 μmoles/1 H^+. In addition, in assay [3], the “Inhibition of Feeding on Rat Palatable Diet Assay I.P. MPE50” value is reported as 10.5 mg/kg.

As for `CC(Cc1c[nH]c2ccccc12)(NC(=O)OC1C2CC3CC(C2)CC1C3)C(=O)NCC(OC(=O)CCC(=O)O)c1ccccc1` (stereo not drawn) [Example 17, 2-[[3-(1H-indol-3-yl)-2-methyl-1-oxo-2-[[(tricyclo-[3.3.1.1.^3,7]dec-2-yloxy)carbonyl]amino]propyl]amino]-1-phenylethyl butanedioate], the inhibitory constant (Ki) at Central CCK Receptors was 0.063 µM. In addition, in assay [3], the “Inhibition of Feeding on Rat Palatable Diet Assay I.P. MPE50” value is given as 13.1 mg/kg.

With `CC(Cc1c[nH]c2ccccc12)(NC(=O)OC1CC2CCC1(C)C2(C)C)C(=O)NCC(NC(=O)CCC(=O)O)c1ccccc1` (stereo not drawn) [Example 20A, [1S -[1α,2β[S*(S*)], 4α]]-4-[[2-[[3-(1H-indol-3-yl)-2-methyl-1-oxo-2-[[[(1,7,7-trimethylbicyclo[2.2.1]hept-2-yl)oxy]carbonyl]amino]propyl]amino]-1-phenylethyl]amino]-4-oxobutanoic acid], the inhibition constant (Ki) on Central CCK Receptors came out at 0.003 µM. Moreover, the “hyperactivity caused by intra-accumbens injection of amphetamine” value in assay [4] is given as “reduced the hyperactivity”. In addition, the “time spent in the light section after withdrawal from alcohol (FIG. 10)” value in assay [5] (alcohol 8% w/v in drinking water 14 days, compound 10 mg/kg i.p.b.d.) was “increased time spent in the light section”. For the same compound, in assay [5] (cocaine 1.0 mg/kg i.p.b.d. 14 days, compound 1.0 mg/kg i.p.b.d.), the “time spent in the light section after withdrawal from cocaine (FIG. 12)” value is given as “increase in time spent in the light section”. Further, the “time spent in the light section after withdrawal from diazepam (FIG. 8)” value in assay [5] (diazepam 10 mg/kg i.p.b.d. seven days, compound 10 mg/kg i.p.b.d.) is “demonstrates the effectiveness of the compound”. Besides, the “time spent in the light area after withdrawal from nicotine (FIG. 6)” value in assay [5] (nicotine 0.1 mg/kg i.p.b.d. 14 days, compound 10 mg/kg i.p.b.d.) is “increase of time spent in the light area”.

`CNC(=C[N+](=O)[O-])NCCSCc1ccc(CN(C)C)o1` [ranitidine, reference compound]: the “inhibition of ulcer formation” value in assay [6] was 74%. The ulcer score in assay [6] (±SD, saline control 12.1±6.85) is 3.2±2.35.
